#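 Five concentrations, 48 hours, 96-well plates. Here, GI50 denotes the concentration required for 50% inhibition of growth. TGI denotes the concentration required for complete inhibition of growth.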 Calls of active or inactive are those of the source. Cut-off read from the data, not from the text of the source: active = GI50 below about 0.43 µM; inactive = the rest.
# Legend:
# Assay in all cases: NCI-60 cell line screen, 48 h
# UACC-257 melanoma = tested on: UACC-257 melanoma
# MDA-MB-435 = tested on: MDA-MB-435
# HT29 colon = tested on: HT29 colon
# SK-OV-3 ovarian = tested on: SK-OV-3 ovarian
# KM12 colon = tested on: KM12 colon
# M14 melanoma = tested on: M14 melanoma
# CCRF-CEM leukemia = tested on: CCRF-CEM leukemia
# SNB-75 CNS = tested on: SNB-75 CNS
# T-47D breast = tested on: T-47D breast
SMILES,GI50 (UACC-257 melanoma),TGI (UACC-257 melanoma),GI50 (MDA-MB-435),TGI (MDA-MB-435),GI50 (HT29 colon),TGI (HT29 colon),GI50 (SK-OV-3 ovarian),TGI (SK-OV-3 ovarian),GI50 (KM12 colon),TGI (KM12 colon),GI50 (M14 melanoma),TGI (M14 melanoma),GI50 (CCRF-CEM leukemia),TGI (CCRF-CEM leukemia),GI50 (SNB-75 CNS),TGI (SNB-75 CNS),GI50 (T-47D breast),TGI (T-47D breast),outcome (T-47D breast)
Nc1c(C(=O)c2cccc(CCCN3CCOCC3)c2)cnn1-c1ccc(F)cc1,> 25 µM,> 25 µM,> 25 µM,> 25 µM,> 25 µM,> 25 µM,> 25 µM,> 25 µM,> 25 µM,> 25 µM,> 25 µM,> 25 µM,> 25 µM,> 25 µM,> 25 µM,> 25 µM,> 23.7 µM,> 25 µM,–
CCNC(=O)[C@@H]1CCCN2C(=O)CC[C@H](NC(=O)[C@H](Cc3ccc(OP(=O)(O)O)cc3)NC(C)=O)C(=O)N12,> 25 µM,> 25 µM,> 25 µM,> 25 µM,> 25 µM,> 25 µM,> 25 µM,> 25 µM,> 25 µM,> 25 µM,> 25 µM,> 25 µM,> 25 µM,> 25 µM,> 25 µM,> 25 µM,> 25 µM,> 25 µM,–
O=C(NC1CCN(Cc2ccccc2)CC1)c1cc(-c2ccncc2)nc2ccc(Cl)cc12,16.9 µM,36.3 µM,15 µM,> 88.7 µM,4.7 µM,19.7 µM,23.3 µM,> 100 µM,24.1 µM,> 100 µM,7.02 µM,34.9 µM,21.2 µM,> 100 µM,2.43 µM,30.4 µM,13.3 µM,49.1 µM,–
CCc1nc(N)nc(N)c1-c1ccc(NCCN)c([N+](=O)[O-])c1,–,72.9 µM,–,> 100 µM,–,> 100 µM,–,> 100 µM,–,> 100 µM,–,75.5 µM,–,> 72.4 µM,–,> 89.7 µM,–,> 100 µM,–
Cn1cc(-c2ccc3c(Nc4cccc(NC(=O)Nc5cccc(F)c5)c4)ncnc3c2)cn1,4.5 µM,22.5 µM,1.49 µM,2.89 µM,1.97 µM,12.6 µM,0.61 µM,13.1 µM,2.52 µM,10.8 µM,2.61 µM,14.9 µM,0.0474 µM,13.7 µM,0.0391 µM,9.57 µM,1.62 µM,28.7 µM,–
COC(=O)CCC(=O)C(=O)OC,30800 µM,–,62100 µM,–,24200 µM,85900 µM,11700 µM,62000 µM,27900 µM,–,32300 µM,–,17800 µM,85500 µM,14800 µM,–,–,–,inactive
COc1cccc(C2c3cc4c(cc3OC(C)(N3CCCC3)C2C)OCO4)c1OC (stereo not given),–,64.1 µM,–,49.3 µM,–,22.3 µM,–,69.6 µM,–,23 µM,–,45.5 µM,–,35.7 µM,–,94.3 µM,–,46.6 µM,–
Nc1ccc2c(c1)C(=O)C(=O)c1c-2nc2ccccn12,1.08 µM,2.28 µM,0.186 µM,0.352 µM,3.97 µM,34.9 µM,2.64 µM,7.62 µM,2.13 µM,6.8 µM,0.281 µM,0.741 µM,1.77 µM,5.27 µM,1.04 µM,2.28 µM,1.76 µM,4.13 µM,–
CCCCCCCCCCCCNC(C)=O,–,63.9 µM,–,35.4 µM,–,33.6 µM,–,29.1 µM,–,35.7 µM,–,32.6 µM,–,32.7 µM,–,55.8 µM,–,66.3 µM,–
CCCCON(OC(=O)c1ccccc1)C(=O)c1ccccc1,> 100 µM,> 100 µM,> 100 µM,> 100 µM,> 100 µM,> 100 µM,> 100 µM,> 100 µM,> 100 µM,> 100 µM,> 100 µM,> 100 µM,49.8 µM,> 100 µM,> 100 µM,> 100 µM,> 100 µM,> 100 µM,–
CC(=O)NCCc1c2c(c3nccc4c3c1Nc1ccccc1-4)OCS2,13.8 µM,27 µM,3.88 µM,18.9 µM,0.968 µM,4.77 µM,1.52 µM,18.8 µM,2.39 µM,10.8 µM,1 µM,4.57 µM,1.28 µM,–,15.3 µM,70.4 µM,2.39 µM,12.8 µM,–
N#Cc1c(-c2ccccc2)nc(SCC2CO2)nc1N1CCOCC1 (stereo not given),34.3 µM,> 100 µM,9.56 µM,> 100 µM,29.7 µM,> 100 µM,8.25 µM,57.3 µM,25.8 µM,> 100 µM,13.4 µM,> 100 µM,> 31 µM,> 100 µM,1.91 µM,> 82.6 µM,2.74 µM,16.4 µM,–
FC(F)(F)Oc1cccc(-c2cnc3ccc(-c4ccncc4)nn23)c1,2.02 µM,–,2.11 µM,48.9 µM,1.34 µM,> 100 µM,0.392 µM,2.11 µM,0.662 µM,> 100 µM,0.769 µM,> 100 µM,2.03 µM,27 µM,1.73 µM,5.14 µM,0.571 µM,4.26 µM,–
CC1(C)N=C(N)N=C(N)N1c1cccc(CCCCc2cccc(S(=O)(=O)F)c2)c1,2.79 µM,36.6 µM,0.329 µM,29 µM,0.26 µM,> 100 µM,10.9 µM,> 100 µM,0.474 µM,14.2 µM,2.92 µM,> 100 µM,0.559 µM,53.4 µM,0.98 µM,23.7 µM,12.3 µM,45.1 µM,–
COc1cc(C(=O)/C=C/c2c(C)n([O-])c3ccc(C)cc3[n+]2=O)cc(OC)c1OC,2.54 µM,10.2 µM,6.47 µM,> 63.4 µM,4.84 µM,16.5 µM,32.7 µM,> 100 µM,13 µM,27.6 µM,4.27 µM,10.3 µM,2.83 µM,> 100 µM,14.5 µM,31.7 µM,2.23 µM,5.81 µM,–

# Reference: PubChem BioAssay (NCI)
